Measured values from ChEMBL document CHEMBL1152132 (2008).
Activity calls are given as the source filed them. The rule behind the calls is not given here.

Assays:
[1] = Ratio of compound ED50 to paclitaxel ED50 for tubulin assembly
Endothelial cell = assay: Binding affinity to Pgp in bovine brain microvessel endothelial cells assessed as increase in rhodamine uptake at 10 uM relative to control; type: cell-based; details: Bos taurus
NCI/ADR-RES [2] = assay: Ratio of compound ED50 to paclitaxel ED50 for human NCI/ADR-RES cells; type: functional
MCF7 [3] = assay: Ratio of compound ED50 to paclitaxel ED50 for human MCF7 cells; type: functional
MCF7 [4] = assay: Cytotoxicity against human MCF7 cells; type: functional; details: read-out: ED50 (the source's name)
NCI/ADR-RES [5] = assay: Cytotoxicity against human NCI/ADR-RES cells; type: functional; details: read-out: ED50 (the source's name)

For `CC(=O)O[C@@]12CO[C@@H]1C[C@H](O)[C@@]1(C)C(=O)[C@H](OC(=O)CCC(=O)N(C)C)C3=C(C)[C@@H](OC(=O)[C@H](O)[C@@H](NC(=O)c4ccccc4)c4ccccc4)C[C@@](O)([C@@H](OC(=O)c4ccccc4)[C@H]21)C3(C)C`, the Ratio ED50 [1] was 1.6, the Activity (Endothelial cell) was “Active” and the “Ratio ED50” value (NCI/ADR-RES [2]) was 2.7. For the same compound, the “Ratio ED50” value (MCF7 [3]) was 2.1.
For `CC(=O)O[C@@]12CO[C@@H]1C[C@H](O)[C@@]1(C)C(=O)[C@H](OC(=O)CCC(=O)O)C3=C(C)[C@@H](OC(=O)[C@H](O)[C@@H](NC(=O)c4ccccc4)c4ccccc4)C[C@@](O)([C@@H](OC(=O)c4ccccc4)[C@H]21)C3(C)C`, the Ratio ED50 [1] was 1.7.
`CC(=O)O[C@H]1C(=O)[C@]2(C)[C@@H](OC(=O)CCC(=O)O)C[C@H]3OC[C@@]3(OC(C)=O)[C@H]2[C@H](OC(=O)c2ccccc2)[C@]2(O)C[C@H](OC(=O)[C@H](O)[C@@H](NC(=O)c3ccccc3)c3ccccc3)C(C)=C1C2(C)C` gave a Ratio ED50 [1] of 3.8.
For `CC(=O)O[C@H]1C(=O)[C@]2(C)[C@@H](OC(=O)CCC(N)=O)C[C@H]3OC[C@@]3(OC(C)=O)[C@H]2[C@H](OC(=O)c2ccccc2)[C@]2(O)C[C@H](OC(=O)[C@H](O)[C@@H](NC(=O)c3ccccc3)c3ccccc3)C(C)=C1C2(C)C`, the Ratio ED50 [1] was 0.6 and the Activity (Endothelial cell) was “Active”.
For `CNC(=O)CCCC(=O)O[C@H]1C(=O)[C@@]2(C)[C@H]([C@H](OC(=O)c3ccccc3)[C@]3(O)C[C@H](OC(=O)[C@H](O)[C@@H](NC(=O)c4ccccc4)c4ccccc4)C(C)=C1C3(C)C)[C@]1(OC(C)=O)CO[C@@H]1C[C@@H]2O`, the Ratio ED50 [1] was 1.8 and the Activity (Endothelial cell) was “Active”.
With `CNC(=O)CCC(=O)O[C@H]1C(=O)[C@@]2(C)[C@H]([C@H](OC(=O)c3ccccc3)[C@]3(O)C[C@H](OC(=O)[C@H](O)[C@@H](NC(=O)c4ccccc4)c4ccccc4)C(C)=C1C3(C)C)[C@]1(OC(C)=O)CO[C@@H]1C[C@@H]2O` the Ratio ED50 [1] was 0.8, the Activity (Endothelial cell) was “Active” and the “Ratio ED50” value (NCI/ADR-RES [2]) was 6. The “Ratio ED50” value (MCF7 [3]) was 7.9.
For `CC(=O)O[C@H]1C(=O)[C@]2(C)[C@@H](OC(=O)CCCC(N)=O)C[C@H]3OC[C@@]3(OC(C)=O)[C@H]2[C@H](OC(=O)c2ccccc2)[C@]2(O)C[C@H](OC(=O)[C@H](O)[C@@H](NC(=O)c3ccccc3)c3ccccc3)C(C)=C1C2(C)C`, the Ratio ED50 [1] was 0.6 and the Activity (Endothelial cell) was “Active”.
Compound `CC(=O)O[C@@]12CO[C@@H]1C[C@H](O)[C@@]1(C)C(=O)[C@H](OC(=O)CCCC(=O)O)C3=C(C)[C@@H](OC(=O)[C@H](O)[C@@H](NC(=O)c4ccccc4)c4ccccc4)C[C@@](O)([C@@H](OC(=O)c4ccccc4)[C@H]21)C3(C)C` has a Ratio ED50 [1] of 1.8.
For `COC(=O)CCC(=O)O[C@H]1C[C@H]2OC[C@@]2(OC(C)=O)[C@H]2[C@H](OC(=O)c3ccccc3)[C@]3(O)C[C@H](OC(=O)[C@H](O)[C@@H](NC(=O)c4ccccc4)c4ccccc4)C(C)=C([C@@H](OC(C)=O)C(=O)[C@]12C)C3(C)C`, the Ratio ED50 [1] was 1.2 and the Activity (Endothelial cell) was “Active”.
For `CC(=O)O[C@H]1C(=O)[C@]2(C)[C@@H](OC(=O)CCCC(=O)O)C[C@H]3OC[C@@]3(OC(C)=O)[C@H]2[C@H](OC(=O)c2ccccc2)[C@]2(O)C[C@H](OC(=O)[C@H](O)[C@@H](NC(=O)c3ccccc3)c3ccccc3)C(C)=C1C2(C)C`, the Ratio ED50 [1] was 1.
In the case of `CNC(=O)CCC(=O)O[C@H]1C[C@H]2OC[C@@]2(OC(C)=O)[C@H]2[C@H](OC(=O)c3ccccc3)[C@]3(O)C[C@H](OC(=O)[C@H](O)[C@@H](NC(=O)c4ccccc4)c4ccccc4)C(C)=C([C@@H](OC(C)=O)C(=O)[C@]12C)C3(C)C`, the Ratio ED50 [1] is reported as 0.8 and the Activity (Endothelial cell) is reported as “Active”.
For `CC(=O)O[C@H]1C(=O)[C@@]2(C)[C@H]([C@H](OC(=O)c3ccccc3)[C@]3(O)C[C@H](OC(=O)[C@H](O)[C@@H](NC(=O)c4ccccc4)c4ccccc4)C(C)=C1C3(C)C)[C@]1(OC(C)=O)CO[C@@H]1C[C@@H]2O` [PACLITAXEL], the EC50 (MCF7 [4]) was 3.2 nM and the EC50 (NCI/ADR-RES [5]) was 1500 nM.
For `CNC(=O)CCCC(=O)O[C@H]1C[C@H]2OC[C@@]2(OC(C)=O)[C@H]2[C@H](OC(=O)c3ccccc3)[C@]3(O)C[C@H](OC(=O)[C@H](O)[C@@H](NC(=O)c4ccccc4)c4ccccc4)C(C)=C([C@@H](OC(C)=O)C(=O)[C@]12C)C3(C)C`, the Ratio ED50 [1] was 0.8, the Activity (Endothelial cell) was “Active” and the “Ratio ED50” value (NCI/ADR-RES [2]) was 3.2. For the same compound, the “Ratio ED50” value (MCF7 [3]) was 3.7.
For `CC(=O)O[C@H]1C(=O)[C@]2(C)[C@@H](OC(=O)CCC(=O)N(C)C)C[C@H]3OC[C@@]3(OC(C)=O)[C@H]2[C@H](OC(=O)c2ccccc2)[C@]2(O)C[C@H](OC(=O)[C@H](O)[C@@H](NC(=O)c3ccccc3)c3ccccc3)C(C)=C1C2(C)C`, the Ratio ED50 [1] was 1.1 and the Activity (Endothelial cell) was “Active”.
For `COC(=O)CCC(=O)O[C@H]1C(=O)[C@@]2(C)[C@H]([C@H](OC(=O)c3ccccc3)[C@]3(O)C[C@H](OC(=O)[C@H](O)[C@@H](NC(=O)c4ccccc4)c4ccccc4)C(C)=C1C3(C)C)[C@]1(OC(C)=O)CO[C@@H]1C[C@@H]2O`, the Ratio ED50 [1] was 1, the “Ratio ED50” value (NCI/ADR-RES [2]) was 0.4 and the “Ratio ED50” value (MCF7 [3]) was 2.5.
With `CC(=O)O[C@@]12CO[C@@H]1C[C@H](O)[C@@]1(C)C(=O)[C@H](OC(=O)CCC(N)=O)C3=C(C)[C@@H](OC(=O)[C@H](O)[C@@H](NC(=O)c4ccccc4)c4ccccc4)C[C@@](O)([C@@H](OC(=O)c4ccccc4)[C@H]21)C3(C)C` the Ratio ED50 [1] was 0.4, the Activity (Endothelial cell) was “Active” and the “Ratio ED50” value (NCI/ADR-RES [2]) was 6. The “Ratio ED50” value (MCF7 [3]) was 10.
For `CC(=O)O[C@@]12CO[C@@H]1C[C@H](O)[C@@]1(C)C(=O)[C@H](OC(=O)CCCC(=O)N(C)C)C3=C(C)[C@@H](OC(=O)[C@H](O)[C@@H](NC(=O)c4ccccc4)c4ccccc4)C[C@@](O)([C@@H](OC(=O)c4ccccc4)[C@H]21)C3(C)C`, the Ratio ED50 [1] was 2.2 and the Activity (Endothelial cell) was “Active”.
For `CC(=O)O[C@@]12CO[C@@H]1C[C@H](O)[C@@]1(C)C(=O)[C@H](OC(=O)CCCC(N)=O)C3=C(C)[C@@H](OC(=O)[C@H](O)[C@@H](NC(=O)c4ccccc4)c4ccccc4)C[C@@](O)([C@@H](OC(=O)c4ccccc4)[C@H]21)C3(C)C`, the Ratio ED50 [1] was 1.8 and the Activity (Endothelial cell) was “Active”.
With `CC(=O)O[C@H]1C(=O)[C@]2(C)[C@@H](OC(=O)CCCC(=O)N(C)C)C[C@H]3OC[C@@]3(OC(C)=O)[C@H]2[C@H](OC(=O)c2ccccc2)[C@]2(O)C[C@H](OC(=O)[C@H](O)[C@@H](NC(=O)c3ccccc3)c3ccccc3)C(C)=C1C2(C)C` the Ratio ED50 [1] was 0.7 and the Activity (Endothelial cell) was “Active”.
